Results from ChEMBL document CHEMBL5634136 (Eur J Med Chem, 2023).
Active and inactive are the calls of the source. The calls are words filed in the database; no cut-off is given here.

Experiments:
[1] = Antiproliferative activity against mouse KC-0116 cells assessed as inhibition of cell growth incubated for 72 hrs by MTT assay; type: functional, cell-based; conditions: KC-0116, 72 h
[2] = Antiproliferative activity against mouse KC-0122 cells assessed as inhibition of cell growth incubated for 72 hrs by MTT assay; type: functional, cell-based; conditions: KC-0122, 72 h
A-431 = test: Antiproliferative activity against human A-431 cells harboring wild type EGFR assessed as inhibition of cell growth incubated for 72 hrs by MTT assay; type: functional, cell-based; conditions: A-431, 72 h
HCC827 = test: Antiproliferative activity against human HCC827 cells harboring EGFR Del19 mutant assessed as inhibition of cell growth incubated for 72 hrs by MTT assay; type: functional, cell-based; conditions: HCC827, 72 h
NCI-H1975 = test: Antiproliferative activity against human NCI-H1975 cells harboring EGFR L858R/T790M mutant assessed as inhibition of cell growth incubated for 72 hrs by MTT assay; type: functional, cell-based; conditions: NCI-H1975, 72 h
HepG2 = test: Antiproliferative activity against human HepG2 cells harboring VEGFR assessed as inhibition of cell growth incubated for 72 hrs by MTT assay; type: functional, cell-based; conditions: HepG2, 72 h
[3] = molecular target: Epidermal growth factor receptor (Mus musculus) (UniProt Q01279); test: Inhibition of EGFR in mouse KC-0116 cells assessed as downregulation of EGFR phosphorylation level incubated for 24 hrs by Western blotting analysis; type: cell-based
Sequence of Epidermal growth factor receptor (Mus musculus) (Q01279 whole entry): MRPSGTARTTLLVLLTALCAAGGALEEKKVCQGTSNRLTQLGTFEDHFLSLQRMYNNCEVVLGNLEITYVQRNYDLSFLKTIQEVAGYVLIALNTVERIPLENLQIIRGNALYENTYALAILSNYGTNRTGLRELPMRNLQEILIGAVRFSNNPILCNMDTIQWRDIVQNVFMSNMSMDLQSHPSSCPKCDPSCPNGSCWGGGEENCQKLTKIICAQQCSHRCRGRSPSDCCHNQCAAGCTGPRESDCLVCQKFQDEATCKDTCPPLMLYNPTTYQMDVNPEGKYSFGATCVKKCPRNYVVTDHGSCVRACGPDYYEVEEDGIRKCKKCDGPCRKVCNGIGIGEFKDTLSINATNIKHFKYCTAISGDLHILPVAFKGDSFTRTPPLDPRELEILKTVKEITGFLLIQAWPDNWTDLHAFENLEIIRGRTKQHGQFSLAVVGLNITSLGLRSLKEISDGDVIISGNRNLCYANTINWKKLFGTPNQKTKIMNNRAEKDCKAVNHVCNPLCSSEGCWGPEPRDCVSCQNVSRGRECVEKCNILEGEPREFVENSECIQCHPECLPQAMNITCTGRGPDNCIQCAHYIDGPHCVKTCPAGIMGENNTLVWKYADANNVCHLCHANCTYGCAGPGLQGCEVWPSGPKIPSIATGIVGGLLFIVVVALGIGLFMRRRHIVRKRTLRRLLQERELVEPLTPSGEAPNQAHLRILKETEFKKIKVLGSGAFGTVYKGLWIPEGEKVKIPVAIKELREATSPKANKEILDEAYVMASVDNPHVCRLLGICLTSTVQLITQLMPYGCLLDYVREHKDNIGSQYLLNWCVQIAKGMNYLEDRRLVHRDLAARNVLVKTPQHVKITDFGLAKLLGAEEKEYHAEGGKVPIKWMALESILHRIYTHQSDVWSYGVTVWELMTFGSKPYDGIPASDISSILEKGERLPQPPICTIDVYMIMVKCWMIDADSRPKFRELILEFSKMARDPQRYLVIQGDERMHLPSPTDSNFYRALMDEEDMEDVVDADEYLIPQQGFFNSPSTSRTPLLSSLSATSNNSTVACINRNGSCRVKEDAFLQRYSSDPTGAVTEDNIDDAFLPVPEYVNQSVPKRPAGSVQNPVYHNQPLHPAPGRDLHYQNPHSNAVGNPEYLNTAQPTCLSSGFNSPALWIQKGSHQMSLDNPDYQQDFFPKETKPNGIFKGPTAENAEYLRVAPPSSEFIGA

[4] = molecular target: Epidermal growth factor receptor (Mus musculus) (UniProt Q01279); test: Inhibition of EGFR in mouse KC-0122 cells assessed as downregulation of EGFR phosphorylation level incubated for 24 hrs by Western blotting analysis; type: cell-based
[5] = molecular target: Epidermal growth factor receptor (Mus musculus) (UniProt Q01279); test: Inhibition of EGFR in mouse KC-0116 cells assessed as downregulation of AKT protein expression level incubated for 24 hrs by Western blotting analysis; type: cell-based
[6] = molecular target: Epidermal growth factor receptor (Mus musculus) (UniProt Q01279); test: Inhibition of EGFR in mouse KC-0122 cells assessed as downregulation of AKT protein expression level incubated for 24 hrs by Western blotting analysis; type: cell-based
[7] = molecular target: Epidermal growth factor receptor (Mus musculus) (UniProt Q01279); test: Inhibition of EGFR in mouse KC-0116 cells assessed as downregulation of ERK protein expression level incubated for 24 hrs by Western blotting analysis; type: cell-based
[8] = molecular target: Epidermal growth factor receptor (Mus musculus) (UniProt Q01279); test: Inhibition of EGFR in mouse KC-0122 cells assessed as downregulation of ERK protein expression level incubated for 24 hrs by Western blotting analysis; type: cell-based
[9] = molecular target: Epidermal growth factor receptor (Mus musculus) (UniProt Q01279); test: Inhibition of EGFR in mouse KC-0116 cells assessed as downregulation of EGFR phosphorylation level at 1 uM incubated for 24 hrs by Western blotting analysis; type: cell-based
[10] = molecular target: Epidermal growth factor receptor (Mus musculus) (UniProt Q01279); test: Inhibition of EGFR in mouse KC-0116 cells assessed as downregulation of AKT protein expression level at 1 uM incubated for 24 hrs by Western blotting analysis; type: cell-based
[11] = molecular target: Epidermal growth factor receptor (Mus musculus) (UniProt Q01279); test: Inhibition of EGFR in mouse KC-0116 cells assessed as downregulation of ERK protein expression level at 1 uM incubated for 24 hrs by Western blotting analysis; type: cell-based
[12] = molecular target: Epidermal growth factor receptor (Mus musculus) (UniProt Q01279); test: Inhibition of EGFR in mouse KC-0122 cells assessed as downregulation of EGFR phosphorylation level at 1 uM incubated for 24 hrs by Western blotting analysis; type: cell-based
[13] = molecular target: Epidermal growth factor receptor (Mus musculus) (UniProt Q01279); test: Inhibition of EGFR in mouse KC-0122 cells assessed as downregulation of AKT protein expression level at 1 uM incubated for 24 hrs by Western blotting analysis; type: cell-based
[14] = molecular target: Epidermal growth factor receptor (Mus musculus) (UniProt Q01279); test: Inhibition of EGFR in mouse KC-0122 cells assessed as downregulation of ERK protein expression level at 1 uM incubated for 24 hrs by Western blotting analysis; type: cell-based
[15] = molecular target: T1, Epidermal growth factor receptor (Homo sapiens, UniProt P00533, C797S/EX19DEL/T790M); test: Inhibition of EGFR Del19/T790M/C797S mutant (unknown origin)
T1 sequence (P00533 whole entry, looked up, stated change not applied): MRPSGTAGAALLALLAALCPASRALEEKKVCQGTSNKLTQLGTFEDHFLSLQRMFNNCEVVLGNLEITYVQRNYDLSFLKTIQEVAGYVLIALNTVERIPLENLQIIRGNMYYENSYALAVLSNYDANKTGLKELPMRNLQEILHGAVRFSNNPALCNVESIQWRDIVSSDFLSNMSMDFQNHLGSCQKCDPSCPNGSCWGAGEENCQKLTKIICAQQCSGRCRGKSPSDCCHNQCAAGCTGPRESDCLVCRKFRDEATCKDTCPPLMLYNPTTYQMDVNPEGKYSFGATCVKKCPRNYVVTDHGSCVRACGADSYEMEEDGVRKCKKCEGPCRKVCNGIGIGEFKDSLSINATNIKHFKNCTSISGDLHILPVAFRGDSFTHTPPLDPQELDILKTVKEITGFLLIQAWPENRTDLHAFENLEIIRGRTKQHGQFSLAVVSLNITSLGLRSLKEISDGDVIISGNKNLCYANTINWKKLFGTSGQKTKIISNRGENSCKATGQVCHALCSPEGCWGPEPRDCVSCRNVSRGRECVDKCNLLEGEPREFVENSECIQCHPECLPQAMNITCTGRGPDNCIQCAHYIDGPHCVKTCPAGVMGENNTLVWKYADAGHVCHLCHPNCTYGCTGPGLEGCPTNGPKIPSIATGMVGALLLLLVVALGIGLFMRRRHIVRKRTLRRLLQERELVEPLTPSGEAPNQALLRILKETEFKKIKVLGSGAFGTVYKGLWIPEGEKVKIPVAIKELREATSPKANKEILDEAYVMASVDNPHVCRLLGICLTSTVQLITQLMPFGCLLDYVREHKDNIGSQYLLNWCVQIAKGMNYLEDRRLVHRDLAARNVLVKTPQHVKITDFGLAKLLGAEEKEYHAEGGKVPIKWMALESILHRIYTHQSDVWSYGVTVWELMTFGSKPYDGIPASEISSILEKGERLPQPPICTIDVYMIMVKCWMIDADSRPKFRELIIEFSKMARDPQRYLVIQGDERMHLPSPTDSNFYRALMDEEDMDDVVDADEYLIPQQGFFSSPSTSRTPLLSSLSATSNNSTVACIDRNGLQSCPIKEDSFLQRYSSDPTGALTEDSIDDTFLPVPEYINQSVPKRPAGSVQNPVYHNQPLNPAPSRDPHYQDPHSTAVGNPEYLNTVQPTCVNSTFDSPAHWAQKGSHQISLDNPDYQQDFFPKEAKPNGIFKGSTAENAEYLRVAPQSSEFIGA

[16] = molecular target: Epidermal growth factor receptor (Homo sapiens, UniProt P00533, C797S/L858R/T790M); test: Inhibition of EGFR L858R/T790M/C797S mutant (unknown origin)
Sequence of Epidermal growth factor receptor (Homo sapiens, UniProt P00533, C797S/L858R/T790M) (P00533 25-1210 T790M/C797S/L858R limits assumed): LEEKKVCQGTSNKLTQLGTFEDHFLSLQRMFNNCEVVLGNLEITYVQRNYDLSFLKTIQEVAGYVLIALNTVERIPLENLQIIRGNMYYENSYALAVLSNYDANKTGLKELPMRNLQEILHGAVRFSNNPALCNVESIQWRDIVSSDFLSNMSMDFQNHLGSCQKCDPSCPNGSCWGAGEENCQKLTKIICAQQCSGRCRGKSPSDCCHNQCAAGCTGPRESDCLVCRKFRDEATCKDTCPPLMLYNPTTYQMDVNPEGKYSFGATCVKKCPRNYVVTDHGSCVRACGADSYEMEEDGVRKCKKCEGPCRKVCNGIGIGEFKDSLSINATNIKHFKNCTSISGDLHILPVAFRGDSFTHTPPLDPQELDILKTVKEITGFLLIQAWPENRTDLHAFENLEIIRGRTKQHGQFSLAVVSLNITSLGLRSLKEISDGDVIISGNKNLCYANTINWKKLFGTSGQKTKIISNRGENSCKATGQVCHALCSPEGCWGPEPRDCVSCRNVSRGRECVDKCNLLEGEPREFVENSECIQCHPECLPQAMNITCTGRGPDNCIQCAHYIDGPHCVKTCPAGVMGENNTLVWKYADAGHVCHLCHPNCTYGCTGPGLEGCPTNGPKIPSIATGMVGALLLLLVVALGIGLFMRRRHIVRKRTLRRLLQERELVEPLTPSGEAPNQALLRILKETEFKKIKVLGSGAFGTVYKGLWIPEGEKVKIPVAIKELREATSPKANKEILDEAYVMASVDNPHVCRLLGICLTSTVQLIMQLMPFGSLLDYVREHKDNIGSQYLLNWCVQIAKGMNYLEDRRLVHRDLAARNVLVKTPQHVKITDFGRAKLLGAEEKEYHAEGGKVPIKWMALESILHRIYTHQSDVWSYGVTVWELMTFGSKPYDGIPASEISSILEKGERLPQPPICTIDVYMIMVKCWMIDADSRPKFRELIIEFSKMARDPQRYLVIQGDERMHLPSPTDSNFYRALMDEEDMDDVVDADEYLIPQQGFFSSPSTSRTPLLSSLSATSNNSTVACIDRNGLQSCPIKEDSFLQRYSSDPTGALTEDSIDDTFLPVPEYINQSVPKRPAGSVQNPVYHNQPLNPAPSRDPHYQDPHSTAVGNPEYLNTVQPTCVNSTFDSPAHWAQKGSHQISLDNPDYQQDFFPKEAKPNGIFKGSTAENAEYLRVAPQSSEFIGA

KC-0116 [17] = test: Induction of cell cycle arrest in mouse KC-0116 cells assessed as accumulation of cells at G1 phase at 1 uM incubated for 24 hrs by RNase/PI staining based flow cytometry; type: functional
[18] = Induction of apoptosis in mouse KC-0116 cells assessed as viable cells at 0.1 uM incubated for 48 hrs by annexin V-FITC/ PI staining based flow cytometry (reference value: 93.27 %); type: functional; conditions: read-out: Activity
[19] = Induction of apoptosis in mouse KC-0116 cells assessed as early apoptotic cells at 0.1 uM incubated for 48 hrs by annexin V-FITC/ PI staining based flow cytometry (reference value: 8.09 %); type: functional
[20] = Induction of apoptosis in mouse KC-0116 cells assessed as late apoptotic cells at 0.1 uM incubated for 48 hrs by annexin V-FITC/ PI staining based flow cytometry (reference value: 1 %); type: functional
[21] = Induction of apoptosis in mouse KC-0116 cells assessed as necrotic cells at 0.1 uM incubated for 48 hrs by annexin V-FITC/ PI staining based flow cytometry (reference value: 0.04 %); type: functional
[22] = Induction of apoptosis in mouse KC-0116 cells assessed as viable cells at 1 uM incubated for 48 hrs by annexin V-FITC/ PI staining based flow cytometry (reference value: 93.27 %); type: functional; conditions: Mus musculus, KC-0116, read-out: Activity
[23] = Induction of apoptosis in mouse KC-0116 cells assessed as early apoptotic cells at 1 uM incubated for 48 hrs by annexin V-FITC/ PI staining based flow cytometry (reference value: 8.09 %); type: functional
[24] = Induction of apoptosis in mouse KC-0116 cells assessed as late apoptotic cells at 1 uM incubated for 48 hrs by annexin V-FITC/ PI staining based flow cytometry (reference value: 1 %); type: functional
[25] = Induction of apoptosis in mouse KC-0116 cells assessed as necrotic cells at 1 uM incubated for 48 hrs by annexin V-FITC/ PI staining based flow cytometry (reference value: 0.04 %); type: functional
[26] = Induction of apoptosis in mouse KC-0116 cells assessed as viable cells at 10 uM incubated for 48 hrs by annexin V-FITC/ PI staining based flow cytometry (reference value: 93.27 %); type: functional; conditions: read-out: Activity
[27] = Induction of apoptosis in mouse KC-0116 cells assessed as early apoptotic cells at 10 uM incubated for 48 hrs by annexin V-FITC/ PI staining based flow cytometry (reference value: 8.09 %); type: functional
[28] = Induction of apoptosis in mouse KC-0116 cells assessed as late apoptotic cells at 10 uM incubated for 48 hrs by annexin V-FITC/ PI staining based flow cytometry (reference value: 1 %); type: functional
[29] = Induction of apoptosis in mouse KC-0116 cells assessed as necrotic cells at 10 uM incubated for 48 hrs by annexin V-FITC/ PI staining based flow cytometry (reference value: 0.04 %); type: functional
[30] = Antitumor activity against mouse KC-0116 cells xenografted in BALB/c mouse assessed as tumor growth inhibition at 10 mg/kg,po administrated once daily for 10 days relative to control; type: functional; conditions: KC-0116, 240 h, time 10 day, read-out: TGI
[31] = Antitumor activity against mouse KC-0116 cells xenografted in BALB/c mouse assessed as tumor growth inhibition at 40 mg/kg,po administrated once daily for 10 days relative to control; type: functional; conditions: KC-0116, 240 h, time 10 day, read-out: TGI
KC-0116 [32] = test: Antitumor activity against mouse KC-0116 cells xenografted in BALB/c mouse assessed as reduction in tumor weight at 40 mg/kg,po administrated once daily for 10 days; type: functional, organism-based; conditions: time 10.0 day
[33] = Toxicity in BALB/c mouse xenografted with mouse KC-0116 cells assessed as change in body weight at 10 mg/kg,po administrated once daily for 10 days; type: organism-based; conditions: in vivo, 240 h, time 10 day
[34] = Toxicity in BALB/c mouse xenografted with mouse KC-0116 cells assessed as change in body weight at 40 mg/kg,po administrated once daily for 10 days; type: organism-based; conditions: in vivo, 240 h, time 10 day
[35] = molecular target: T1, Epidermal growth factor receptor; test: Inhibition of recombinant EGFR Del19/T790M/C797S mutant (unknown origin) in presence of ATP by TR-FRET assay

CN(C)C1CCN(c2ccc(Nc3nccc(-c4cn(C)c5ccccc45)n3)cc2NS(C)(=O)=O)CC1
IC50 [1]: 160 nM
IC50 [2]: 170 nM
IC50 (A-431): 1990 nM
IC50 (HCC827): 160 nM
IC50 (NCI-H1975): 1000 nM
IC50 (HepG2): 1780 nM
inhibition [3]: Dose-Dependent Effect
inhibition [4]: Dose-Dependent Effect
inhibition [5]: Dose-Dependent Effect
inhibition [6]: Dose-Dependent Effect
inhibition [7]: Dose-Dependent Effect
inhibition [8]: Dose-Dependent Effect
inhibition [9]: Active
inhibition [10]: Active
inhibition [11]: Active
inhibition [12]: Active
inhibition [13]: Active
inhibition [14]: Active
IC50 [15]: 18 nM
IC50 [16]: 113 nM
Activity (KC-0116 [17]): Active
viability at 0.1 µM [18]: 92.9%
Activity [19]: 5.5%
Activity [20]: 1.42%
Activity [21]: 0.08%
viability at 1 µM [22]: 72.9%
Activity [23]: 25.29%
Activity [24]: 2.66%
Activity [25]: 0.17%
viability at 10 µM [26]: 1.53%
Activity [27]: 91.42%
Activity [28]: 0.77%
Activity [29]: 0.09%
inhibition in vivo at 10 mg/kg [30]: 28.4%
inhibition in vivo at 40 mg/kg [31]: 77.6%
Activity (KC-0116 [32]): Active
Activity [33]: Non-Toxic
Activity [34]: Non-Toxic

CC(C)n1c2cc(Nc3ccnc(-c4cnn(S(=O)(=O)C5CC5)c4)n3)ncc2c2c(OCC(F)(F)F)cc(N3CCN(C)CC3)cc21
IC50 [35]: 0.28 nM
